The values below come from patent US20220409727A1, “Metal Complexes Bearing Bisstyryl-Bipyridine Ligand and Their Use as Photosensitizer Agent in One and Two-Photon Photodynamic Therapy” (Paris Sciences et Lettres, priority 2019, published 2022).

The conditions of data set [1]: reference for the measurement; cited from earlier work.
For data set [2] the following is noted: CH3CN; cited from earlier work.
In data set [3] the test system is HeLa MCTS. Description: 3D multicellular tumor spheroids (MCTS) growth inhibition assay. The format is cell-based, human. On the procedure: (§1) autoclave. The hot emulsion was transferred into wells (50 μL per well) of a 96 cell culture well plate. The plates were exposed for 3 h to UV irradiation to ensure the sterility and allow the agarose solution to cool down. After this time, the agarose was overlayed with a HeLa cell suspension at a density of 3000 cells per well in 150 μL of media. The MCTS were cultivated and maintained at 37° C. in a cell culture incubator at 37° C. with 5% CO2 atmosphere. The culture media was replaced every two days. Within two-three days MCTs were formed from the cell suspension. The formation as well as integrity, diameter and volume of the MCTs was monitored by an Axio Observer Z1 (Carl Zeiss) phase contrast microscope. The volume was calculated using the following formula: V=4/3πr^3. The luminescence images along the z-axis were captured by a one-(λex=458 nm, λem=600-750 nm) or two-photon (λex=800 nm, λem=600-750 nm) excitation in the z-stack mode with a an LSM 880 (Carl Zeiss) laser scanning confocal microscope equipped with Argon and a Coherent Chameleon 2-Photon laser and a GaAsP detector.
MCTS were treated with the corresponding compounds (20 μM 1-7, 20 μM tetraphenylporphyrin H2TPP, 10 μM cisplatin, 30 μM cisplatin, 2% DMSO, v %) by replacing 50% of the media with drug supplemented media in the dark for three days. After this time, the MCTS were exposed to a two-photon irradiation (800 nm, 10 J/cm^2) with a section interval of 5 μm using a LSM 880 (Carl Zeiss) laser scanning confocal microscope equipped with a Coherent Chameleon 2-Photon laser. The cell culture media was replaced every two days. The integrity and diameter of the MCTs was monitored with an Axio Observer Z1 (Carl Zeiss) phase contrast microscope every 24 h.

Data set [4] relates to mouse colon carcinoma (CT-26) cells. Description: (Photo-)cytotoxicity on 2D cell monolayers, resazurin assay, CT-26. The note with it: read-out: IC50 dark; CT-26, dark; 4 h incubation; compounds 1-3 as chloride salts. On the technique in general: Alamar Blue is a resazurin reagent that responds to reducing activity.
In data set [5] the test system is HeLa MCTS. Put plainly: (Photo-)cytotoxicity on 3D multicellular tumor spheroids (ATP, CellTiter-Glo 3D). Type of data set: cell-based, human. The note with it: dark, 12 h incubation, read-out: IC50 dark. On the procedure: as §1
The cytotoxicity of the compounds in 3D multicellular tumor spheroids (MCTS) was assessed by measurement of the ATP concentration. MCTS were treated with increasing concentrations of the compound (2% DMSO, v %) by replacing 50% of the media with drug supplemented media and incubation for 12 h. After this time, the MCTS were divided in three identical groups. The first group was strictly kept in the dark. The second group was exposed to a one-photon irradiation (500 nm, 10 J/cm^2) using a LED and the third group was exposed to a two-photon irradiation (800 nm, 10 J/cm^2) with a section interval of 5 μm using a LSM 880 (Carl Zeiss, Germany) laser scanning confocal microscope equipped with a Coherent Chameleon 2-Photon laser. After the irradiation, all groups were incubated additional 48 h. The ATP concertation was measured using a CellTiter-Glo 3D Cell Viability kit (Promega) by measuring the generated chemiluminescence with an infinite M200 PRO (Tecan) plate reader.
For orientation: In ATP-based viability assays light output follows the ATP content of the culture.

Data set [6] has as its system human glioblastoma astrocytoma (U373) cells. Put plainly: (Photo-)cytotoxicity on 2D cell monolayers, resazurin assay, U373. The following applies: read-out: IC50 dark; U373, dark; 4 h incubation; compounds 1-3 as chloride salts.
Data set [7] deals with human cervical carcinoma (HeLa) cells. Description: (Photo-)cytotoxicity on 2D cell monolayers, resazurin assay, HeLa. The format is cell-based. The note with it: dark, 4 h incubation, compounds 1-3 as chloride salts, read-out: IC50 dark. From the text:
Before an experiment, the cells were passaged three times.

Structures are written as SMILES.

As to `O=C([O-])c1c(Cl)c(Cl)c(Cl)c(Cl)c1-c1c2cc(I)c(=O)c(I)c-2oc2c(I)c([O-])c(I)cc12.[Na+].[Na+]` [Rose Bengal], in data set [1], the “Φ (singlet oxygen quantum yield of the reference)” value is on record as 76%.

For `[Cl-].[Cl-].[Ru+2].c1ccc(-c2ccccn2)nc1.c1ccc(-c2ccccn2)nc1.c1ccc(-c2ccccn2)nc1` [[Ru(bipy)3]Cl2], the “Φem (luminescence quantum yield of the reference)” value in data set [2] was 5.9%.

As usually defined, the IC50 is the concentration at which inhibition is half-maximal. On to `N.N.[Cl][Pt][Cl]` [cisplatin, reference compound], for which the “effect on the tumours growth (MCTS volume) at 10 μM” value in the data set on HeLa MCTS [3] (10 μM) is on record as “weak effect”. The “effect on the tumours growth (MCTS volume) at 30 μM” value in the data set with HeLa MCTS [3] (30 μM) is listed as “significantly decreasing the volume”. The IC50 in data set [4] is 6.5 ± 1.1 µM; in the data set with HeLa MCTS [5], 18.6 ± 1.3 µM; in data set [6], 17.6 ± 1.7 µM; in data set [7], 10.5 ± 0.8 µM.
